# Molecular target: Bifunctional protein GlmU (Escherichia coli (strain K12), UniProt P0ACC7)
# Assay: Inhibition Assay
# Details: pH 7.35
# Text: (§1) Inhibition assay using GlmU bifuncation enzyme with various bacterial strains.
# Chain of Bifunctional protein GlmU (Escherichia coli (strain K12), UniProt P0ACC7) (P0ACC7 whole entry): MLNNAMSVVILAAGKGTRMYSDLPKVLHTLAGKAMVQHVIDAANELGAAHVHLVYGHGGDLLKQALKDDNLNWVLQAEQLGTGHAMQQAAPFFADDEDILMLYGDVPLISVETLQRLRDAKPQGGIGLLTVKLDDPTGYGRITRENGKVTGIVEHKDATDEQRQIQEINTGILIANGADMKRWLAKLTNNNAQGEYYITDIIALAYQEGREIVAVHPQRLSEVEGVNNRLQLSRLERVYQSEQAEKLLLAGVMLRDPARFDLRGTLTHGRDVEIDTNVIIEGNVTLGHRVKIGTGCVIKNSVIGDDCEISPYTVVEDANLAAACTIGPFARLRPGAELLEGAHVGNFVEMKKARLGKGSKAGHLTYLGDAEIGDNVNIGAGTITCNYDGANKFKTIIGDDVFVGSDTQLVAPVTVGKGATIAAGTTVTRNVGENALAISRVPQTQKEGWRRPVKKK
row,Structure (SMILES),IC50 [µM]
1,"COc1cc(O)c(S(=O)(=O)N2c3ccccc3CCC2C)cc1NC(=O)CCC(=O)O (stereo not drawn) [Sulfonamide, 4]",0.058
2,"COc1cc(OC)c(S(=O)(=O)N2c3ccccc3Oc3ccccc32)cc1NC(=O)CCC(=O)O [Sulfonamide, 5]",0.007
3,COc1cc(OC)c(S(=O)(=O)N2c3ccccc3CC2C)cc1NC(C)=O (stereo not drawn),2.1

# Molecular target: Bifunctional protein GlmU (Haemophilus influenzae (strain ATCC 51907 / DSM 11121 / KW20 / Rd), UniProt P43889)
# Assay: Inhibition Assay
# Details: pH 7.35
# Text: as §1
# Chain of Bifunctional protein GlmU (Haemophilus influenzae (strain ATCC 51907 / DSM 11121 / KW20 / Rd), UniProt P43889) (P43889 whole entry): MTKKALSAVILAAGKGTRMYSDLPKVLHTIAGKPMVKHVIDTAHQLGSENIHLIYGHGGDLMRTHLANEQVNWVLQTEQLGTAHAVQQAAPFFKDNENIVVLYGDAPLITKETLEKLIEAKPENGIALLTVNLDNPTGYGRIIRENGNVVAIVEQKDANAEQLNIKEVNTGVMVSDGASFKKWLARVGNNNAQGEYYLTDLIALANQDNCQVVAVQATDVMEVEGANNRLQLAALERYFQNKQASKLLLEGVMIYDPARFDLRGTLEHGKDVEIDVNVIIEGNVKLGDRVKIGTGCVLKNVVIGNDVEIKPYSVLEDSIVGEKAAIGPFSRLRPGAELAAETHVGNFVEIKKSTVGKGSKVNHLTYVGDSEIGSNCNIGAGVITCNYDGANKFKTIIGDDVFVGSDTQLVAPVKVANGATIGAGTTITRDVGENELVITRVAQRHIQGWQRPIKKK
row,Structure (SMILES),IC50 [µM]
1,"COc1cc(O)c(S(=O)(=O)N2c3ccccc3CCC2C)cc1NC(=O)CCC(=O)O (stereo not drawn) [Sulfonamide, 4]",0.28
2,COc1cc(OC)c(S(=O)(=O)N(C)c2ccccc2)cc1NC(C)=O,6.4
3,"COc1cc(OC)c(S(=O)(=O)N2c3ccccc3Oc3ccccc32)cc1NC(=O)CCC(=O)O [Sulfonamide, 5]",0.023
4,"COc1cc(OC)c(S(=O)(=O)N(c2ccccc2)c2ccc(N)cc2)cc1NC(=O)CCC(=O)O [Sulfonamide, 3]",0.4
5,COc1cc(OC)c(S(=O)(=O)N2c3ccccc3CC2C)cc1NC(C)=O (stereo not drawn),7.8

# Molecular target: Bifunctional protein GlmU (Staphylococcus aureus (strain COL), UniProt Q5HIH6)
# Assay: Inhibition Assay
# Details: pH 7.35
# Text: as §1
# Chain of Bifunctional protein GlmU (Staphylococcus aureus (strain COL), UniProt Q5HIH6) (Q5HIH6 whole entry): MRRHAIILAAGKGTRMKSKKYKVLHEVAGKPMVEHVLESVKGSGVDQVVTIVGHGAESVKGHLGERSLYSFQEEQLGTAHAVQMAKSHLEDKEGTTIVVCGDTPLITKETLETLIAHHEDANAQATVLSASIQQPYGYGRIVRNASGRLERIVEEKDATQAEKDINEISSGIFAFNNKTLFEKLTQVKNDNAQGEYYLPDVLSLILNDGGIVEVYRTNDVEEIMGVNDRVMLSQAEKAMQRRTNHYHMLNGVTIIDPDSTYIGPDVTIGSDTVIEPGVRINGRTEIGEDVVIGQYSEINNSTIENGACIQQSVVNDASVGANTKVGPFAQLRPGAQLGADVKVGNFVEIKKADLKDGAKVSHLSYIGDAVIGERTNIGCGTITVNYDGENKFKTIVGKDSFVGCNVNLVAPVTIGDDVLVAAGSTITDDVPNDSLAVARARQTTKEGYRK
row,Structure (SMILES),IC50 [µM]
1,"COc1cc(O)c(S(=O)(=O)N2c3ccccc3CCC2C)cc1NC(=O)CCC(=O)O (stereo not drawn) [Sulfonamide, 4]",> 200
2,"COc1cc(OC)c(S(=O)(=O)N2c3ccccc3Oc3ccccc32)cc1NC(=O)CCC(=O)O [Sulfonamide, 5]",> 200
3,"COc1cc(OC)c(S(=O)(=O)N(c2ccccc2)c2ccc(N)cc2)cc1NC(=O)CCC(=O)O [Sulfonamide, 3]",> 200
4,COc1cc(OC)c(S(=O)(=O)N2c3ccccc3CC2C)cc1NC(C)=O (stereo not drawn),> 200

# Molecular target: Bifunctional protein GlmU (Streptococcus pneumoniae (strain ATCC BAA-255 / R6), UniProt Q8DQ18)
# Assay: Inhibition Assay
# Details: pH 7.35
# Text: as §1
# Chain of Bifunctional protein GlmU (Streptococcus pneumoniae (strain ATCC BAA-255 / R6), UniProt Q8DQ18) (Q8DQ18 whole entry): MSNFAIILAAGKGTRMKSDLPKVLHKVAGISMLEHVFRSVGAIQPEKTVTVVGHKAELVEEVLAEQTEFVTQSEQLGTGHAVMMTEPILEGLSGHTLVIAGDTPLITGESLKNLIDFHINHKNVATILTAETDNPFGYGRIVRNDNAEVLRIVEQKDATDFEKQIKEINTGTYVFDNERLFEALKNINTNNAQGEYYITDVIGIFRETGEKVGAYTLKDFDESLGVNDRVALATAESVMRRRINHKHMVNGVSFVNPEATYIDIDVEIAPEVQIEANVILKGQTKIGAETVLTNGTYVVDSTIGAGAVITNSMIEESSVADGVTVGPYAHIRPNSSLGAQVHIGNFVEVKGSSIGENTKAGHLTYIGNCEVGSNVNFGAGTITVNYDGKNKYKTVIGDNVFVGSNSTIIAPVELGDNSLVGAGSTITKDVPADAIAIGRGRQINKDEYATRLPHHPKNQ
row,Structure (SMILES),IC50 [µM]
1,"COc1cc(O)c(S(=O)(=O)N2c3ccccc3CCC2C)cc1NC(=O)CCC(=O)O (stereo not drawn) [Sulfonamide, 4]",4.7
2,COc1cc(OC)c(S(=O)(=O)N(C)c2ccccc2)cc1NC(C)=O,> 200
3,"COc1cc(OC)c(S(=O)(=O)N2c3ccccc3Oc3ccccc32)cc1NC(=O)CCC(=O)O [Sulfonamide, 5]",15
4,"COc1cc(OC)c(S(=O)(=O)N(c2ccccc2)c2ccc(N)cc2)cc1NC(=O)CCC(=O)O [Sulfonamide, 3]",40
5,COc1cc(OC)c(S(=O)(=O)N2c3ccccc3CC2C)cc1NC(C)=O (stereo not drawn),> 200

# Molecular target: Bifunctional protein GlmU (Escherichia coli) (UniProt P0ACC7)
# Assay: Inhibition assay using GlmU bifuncation enzyme with various bacterial strains.
# Details: pH 7.35
# Chain of Bifunctional protein GlmU (Escherichia coli) (P0ACC7 whole entry, looked up): as the sequence (P0ACC7 whole entry) above
row,Structure (SMILES),Kd [µM]
1,COc1cc(OC)c(S(=O)(=O)N(C)c2ccccc2)cc1NC(C)=O,1.9
